Several values for one entry are separate records, joined by “and”; a condition that tells them apart may be missing. Identical values can stand only once. Like-named read-outs stand apart in the source and are kept apart here.
Experiments:
Fasciola hepatica eggs = test system: Fasciola hepatica eggs; parameters: method as in PMID 19560276; conditions: other studies, cited from earlier work
[1] = test system: Fasciola hepatica eggs (ABZ-resistant isolate); test: Egg hatch test (EHT), ABZ-resistant isolate; assay type: cell-based; conditions: ABZ at discriminant dose (DD) 0.5 µM
Description: (§1) F. hepatica eggs were recovered after washing the gallbladder of three naturally infected sheep belonging to a flock suspected to be resistant to ABZ. From these eggs, metacercariae were produced at the Centro de Investigaciones de Mabegondo (AGACAL, Xunta de Galicia, Spain) following a previous protocol. These metacercariae were used to infect eight sheep with a dose of 200 metacercariae. The infection was confirmed individually 3 months after the infection by coprological analysis using a sedimentation technique. At that point, sheep were randomly located in two groups of four animals: one treated with a therapeutic dose of ABZ (7.5 mg/kg) and the other one only with water, as control group. To assess the efficacy of ABZ in this isolate, all sheep were humanely euthanized by an intravenous administration of a lethal dose of sodium pentobarbital (Dolethal®, Vetoquinol, Spain) 2 weeks later for fluke recovery and counting. Afterwards, the in vivo efficacy of ABZ was calculated as the percentage of adult worm reduction compared with the untreated control. Additionally, the number of eggs per gram of feces (EPG) was estimated on the treatment day (mentioned as day 0) and 14 days later to determine drug efficacy by means of the fecal egg count reduction test (FECRT).
During the necropsy, gallbladders from sheep belonging to the untreated group were taken to collect the eggs and carry out the in vitro EHT, while flukes collected from livers were used to conduct the adult viability test (AVT).
Those BZDs with an activity higher than 80% at a concentration of 10 µM were also screened on eggs and adults from the ABZ resistant isolate.
(§2) The in vitro EHT described in the current study was based on previous studies. Briefly, 100–120 eggs were incubated in 990 µL of water and 10 μL of each working solution at 25 °C in the dark for a period of 12 h. After incubation, eggs were gently washed with tap water three times to facilitate compound removal and kept in darkness at 25 °C for 14 days. After this period, eggs were exposed to light for 2 h to stimulate the hatching of eggs. Then, hatched and unhatched eggs were evaluated and counted using an optical microscope. The term “hatched eggs” includes both hatched and embryonated eggs. Negative control eggs were incubated with 10 μL of DMSO in 990 μL of water, reaching a maximum DMSO concentration of 1% (v/v), while ABZ at 0.5 µM was used as positive control. Each compound at a specific concentration was tested in triplicate in the same EHT and repeated at least two different days.
(§3) The efficacy of each compound and drug was calculated as its ovicidal activity following the formula below: Ovicidal activity%=100×%eggs hatched in negative control-%egg hatched after drug incubation/%egg hatched in control.

[2] = test system: Fasciola hepatica (resistant isolate); test: In vivo efficacy of ABZ in sheep infected with the resistant isolate (worm count, FECRT); conditions: ABZ 7.5 mg/kg
Description: as §1, with “To assess the efficacy of ABZ in this isolate, all sheep were humanely euthanized by an intravenous administration of a lethal dose of sodium pentobarbital (Dolethal®, Vetoquinol, Spain) 2 weeks later for fluke recovery and counting.” left out, “Additionally, the number of eggs per gram of feces (EPG) was estimated on the treatment day (mentioned as day 0) and 14 days later to determine drug efficacy by means of the fecal egg count reduction test (FECRT).” left out
The percentage of in vivo efficacy of ABZ and the FECRT were calculated using the following formulas, respectively: %of Worm Reduction=100×Mean of adult worms in control group-Mean of adult worms in treated group/Mean of adult worms in control group. %FECRT=100×Arithmetic mean EPG day0-Arithmetic mean EPG day 14/Arithmetic mean EPG day0.

[3] = test system: Fasciola hepatica eggs (ABZ-susceptible isolate); test: Egg hatch test (EHT), ABZ-susceptible isolates; assay type: cell-based; conditions: for % Ovicidal activity: ABZ-susceptible isolate
Procedure: Eggs were recovered from gallbladders of cattle naturally infected with F. hepatica at the municipal slaughterhouse of León (Spain). For this, the bile of the gallbladders was filtered through sieves of different diameter size pores (500, 150, and 20 µm) using pressurized tap water. Eggs retained on the 20 µm pore size sieve were collected and stored at 4 °C in darkness until required within a maximum period of 2 months.
The susceptibility of the isolates to ABZ was confirmed by the egg hatch test (EHT) using an ABZ discriminant dose (DD) of 0.5 µM [23]. The technique is described in more detail below.
The in vitro anthelmintic activity of a total of 70 BZDs was initially tested on F. hepatica eggs recovered from gallbladders of cattle naturally infected with ABZ-susceptible isolates. The first screening was performed using a fixed concentration of 50 µM. […] Therefore, only BZDs with ovicidal activities over 80% progressed to the next assays at 10 µM. […] At this last concentration, the ovicidal effect of ABZ, ABZSO, and OXF was also evaluated.
as §2
With the aim to characterize the susceptibility of isolates from naturally infected cattle, the drug used in the EHT was ABZ, tested at a discriminant dose of 0.5 μM. Drug susceptibility is assumed when the ovicidal activity is over 70%, resistance when is lower than 40%, and a suspicion of resistance when activity is between these values at 0.5 μM.
as §3

[4] = test system: murine intestinal organoids; test: Intestinal tolerability assay on murine intestinal organoids; assay type: cell-based, mouse
Procedure: (§4) The murine intestinal organoid cultures were prepared following Stemcell Technologies™ protocols (https://www.stemcell.com/intestinal-epithelial-organoid-culture-with-intesticult-organoid-growth-medium-mouse-lp.html#protocols). Small intestine sections from C57BL/6 mice were excised, washed with ice-cold PBS, minced, and 2 mm segments were washed extensively. The segments were treated with Gentle Cell Dissociation Reagent (Stemcell Technologies™, Canada), resuspended in ice-cold PBS with 0.1% BSA and filtered. This process was repeated four times, resulting in four fractions. Cells from each fraction were centrifuged, washed, and resuspended in ice-cold DMEM/F12 supplemented with glutamine and HEPES 15 mM. Each fraction was mixed with Geltrex GFR LDEV-free (Gibco, Thermo Fisher Scientific, USA) and IntestiCult™ Organoid Grow Medium Mouse (Stemcell Technologies™, Canada), added to a 24-well plate and incubated at 37 °C for 10 min for matrix polymerization. The organoids were cultured in IntestiCult™ Organoid Grow Medium Mouse, with medium changes every 2 days and splitting after 7 days.
(§5) For intestinal tolerability assays, selected hit compounds were tested in mouse intestinal organoids at 25 and 50 µM final concentrations. The protocol, based on a previous work, involved the addition of Gentle Cell Dissociation Reagent (Stemcell Technologies™, Canada) on matrix domes, the disruption of the matrix, and the incubation the suspension. After centrifugation, cells were resuspended in DMEM/F12 supplemented with glutamine and HEPES 15 mM and centrifugated again. The pellet was resuspended in a mix of Geltrex GFR LDEV-free and IntestiCult™ Organoid Grow Medium Mouse. The mix was plated in 384-well plates, and after 4 days, mature organoids were exposed to the compounds. The positive control was hydrogen peroxide (0.15% v/v), and the negative control was DMSO (0.2%). Viability after 72 h was assessed using the alamarBlue assay.

HepG2 cells = test: Cytotoxicity assay, alamarBlue; assay type: cell-based, human
Procedure: (§6) The effect of the BZDs on cell viability was assessed on a human hepatocarcinoma HepG2 (ATCC® HB-8065™, USA) cell line. Only compounds screened at a concentration of 10 µM were evaluated. The detailed protocol is described in a previous study carried out by our research group. Briefly, 10,000 cells were seeded on 96-well plates and incubated with different concentrations of the compounds ranging from 1 to 100 µM at 37 °C and 5% CO2. After 72 h of exposure, viability of the cells was assessed using the alamarBlue (Fisher Scientific®, Spain) staining method according to the manufacturer’s recommendations.
(§7) The data are represented as mean ± standard error of media (SEM).

[5] = test system: Heligmosomoides polygyrus adults; parameters: method as in PMID 35804427; conditions: 10 µM; cited from earlier work
[6] = test system: Teladorsagia circumcincta eggs; conditions: cited from earlier work
Trichuris muris adults = test system: Trichuris muris adults; parameters: method as in PMID 35804427; conditions: 10 µM; cited from earlier work
Haemonchus contortus = conditions: sheep infected with Haemonchus contortus, 120 mg/kg; cited from earlier work
[7] = Intestinal tolerability assay on murine intestinal organoids; assay type: cell-based, mouse; conditions: C57BL/6, mouse, murine small-intestinal organoids, 72 h
Procedure: as §4, §5

[8] = Cytotoxicity assay, alamarBlue; assay type: cell-based, human; conditions: human, HepG2 cells; 72 h exposure, alamarBlue; read-out: CC50 Hep-G2
Procedure: as §6, §7

[9] = type II BZDs, read-out: IC50 against T. circumcincta eggs

CCCSc1ccc2nc(NC(=O)OC)[nH]c2c1 [ABZ, albendazole, reference compound]
Lowest concentration able to reduce egg hatching (Fasciola hepatica eggs; in vitro): 0.05 µM | % Ovicidal activity resistant isolate [1]: 36.5% | % Ovicidal activity resistant isolate ([1]; listed as ABZ (DD)): 36.46 ± 02.36% | reduction in the number of eggs in feces (FECRT) ([2]; day 0 vs day 14): 0% | survival rate of the adult flukes ([2]; necropsy 2 weeks after treatment): 96.7% | % Ovicidal activity ([3]; ABZ at discriminant dose (DD) 0.5 µM): 99.1% and 98% | % Ovicidal activity ([3]; ABZ at discriminant dose (DD) 0.5 µM, listed as ABZ (DD)): 99.01 ± 00.37% and 98.55 ± 00.41%

COc1ccc(-c2nc3cc(C)ccc3[nH]2)cc1 [BZD04]
% Viability in organoids ([4]; 50 µM): 10.50% | % Ovicidal activity ([3]; 10 µM, mean ± SEM): 64.27 ± 10.16% | % Ovicidal activity ([3]; 50 µM, mean ± SEM): 99.57 ± 0.43% | % Ovicidal activity ([3]; 50 µM, mean ± SEM, listed as BZD-04): higher than 80%

COc1ccc(-c2nc3cc(Cl)ccc3[nH]2)cc1 [BZD08]
% Viability in organoids ([4]; 25 µM): 69.30% | % Viability in organoids ([4]; 50 µM): 47.30% | CC50 (HepG2 cells): > 50 µM | % Ovicidal activity ([3]; 10 µM, mean ± SEM): 55.33 ± 05.81% | % Ovicidal activity ([3]; 10 µM, mean ± SEM, listed as BZD-08): around 50% | % Ovicidal activity ([3]; 50 µM, mean ± SEM): 98.08 ± 1.06% | % Ovicidal activity ([3]; 50 µM, mean ± SEM, listed as BZD-08): higher than 80%

Clc1ccc(-c2nc3cc(Cl)ccc3[nH]2)cc1 [BZD09]
Inhibition of motility of Heligmosomoides polygyrus adults [5]: effectively inhibited the motility | IC50 ([6]; read-out: 50% inhibitory concentration (IC50) in eggs by the EHT, T. circumcincta eggs, type I BZDs): 6 µM | % Ovicidal activity ([3]; 50 µM, mean ± SEM): 04.96 ± 1.22%

O=[N+]([O-])c1ccc2[nH]c(-c3ccc(Cl)cc3)nc2c1 [BZD15]
% Ovicidal activity ([3]; 50 µM, mean ± SEM): 24.32 ± 10.58% | Inhibition of Trichuris muris adult motility (Trichuris muris adults): inhibited Trichuris muris adult motility

Cc1ccc2[nH]c(NCc3ccccc3)nc2c1 [BZD27]
% Viability in organoids ([4]; 25 µM, 72 h): 54.10% | % Viability in organoids ([4]; 50 µM, 72 h): 49.70% | % Ovicidal activity ([3]; 10 µM, mean ± SEM): 44.65 ± 07.46% | % Ovicidal activity ([3]; 10 µM, mean ± SEM, listed as BZD-27): around 50% | % Ovicidal activity ([3]; 50 µM, mean ± SEM): 95.92 ± 1.99% | % Ovicidal activity ([3]; 50 µM, mean ± SEM, listed as BZD-27): higher than 80%

Cc1ccc2[nH]c(NCc3ccco3)nc2c1 [BZD30]
% Viability in organoids ([4]; 25 µM, 72 h): 62.50% | % Viability in organoids ([4]; 50 µM, 72 h): 54.00% | CC50 (HepG2 cells; 72 h exposure, alamarBlue, read-out: CC50 Hep-G2): > 50 µM | % Ovicidal activity ([3]; 10 µM, mean ± SEM): 52.41 ± 01.02% | % Ovicidal activity ([3]; 10 µM, mean ± SEM, listed as BZD-30): around 50% | % Ovicidal activity ([3]; 50 µM, mean ± SEM): 100.00 ± 0.00% | % Ovicidal activity ([3]; 50 µM, mean ± SEM, listed as BZD-30): higher than 80%

Clc1ccc2[nH]c(NCc3ccccc3)nc2c1 [BZD32]
% Viability in organoids ([4]; 25 µM): 48.10% | % Viability in organoids ([4]; 50 µM): 52.10% | % Ovicidal activity ([3]; 10 µM, mean ± SEM): 09.11 ± 03.40% | % Ovicidal activity ([3]; 50 µM, mean ± SEM): 92.62 ± 1.96% | % Ovicidal activity ([3]; 50 µM, mean ± SEM, listed as BZD-32): higher than 80%

COc1ccc2[nH]c(NCc3ccc(N4CCCC4)cc3)nc2c1 [BZD38]
% Viability in organoids ([4]; 25 µM): 81.10% | % Viability in organoids ([4]; 50 µM): 38.00% | CC50 (HepG2 cells): > 100 µM | % Ovicidal activity ([3]; 10 µM, mean ± SEM): 03.23 ± 00.84% | % Ovicidal activity ([3]; 50 µM, mean ± SEM): higher than 80%

Cc1ccc2[nH]c(NC(=O)c3ccccn3)nc2c1 [BZD55]
IC50 [6, 9]: ~1 µM | % Viability in organoids ([4]; 25 µM): 98.60% | CC50 (HepG2 cells): > 100 µM | % Ovicidal activity ([3]; 10 µM, mean ± SEM): 07.11 ± 03.01% | % Ovicidal activity ([3]; 50 µM, mean ± SEM): 89.71 ± 3.87% | % Ovicidal activity ([3]; 50 µM, mean ± SEM, listed as BZD-55): higher than 80%

O=C(Nc1nc2cc(Cl)ccc2[nH]1)c1ccccn1 [BZD58]
% Viability in organoids ([4]; 25 µM): 100% | CC50 (HepG2 cells): > 5 µM | % Ovicidal activity ([3]; 10 µM, mean ± SEM): around 50% | % Ovicidal activity ([3]; 50 µM, mean ± SEM): higher than 80% | in vivo efficacy (Haemonchus contortus): 95%

COc1ccc2[nH]c(NC(=O)c3ccccn3)nc2c1 [BZD61]
IC50 [6, 9]: < 1 µM | % Ovicidal activity ([3]; 50 µM, mean ± SEM): 93.17 ± 3.31% | % Ovicidal activity ([3]; 50 µM, mean ± SEM, listed as BZD-61): higher than 80%

Nc1cc(C(Cl)=C(Cl)Cl)c(S(N)(=O)=O)cc1S(N)(=O)=O [CLR, clorsulon]
Effect on in vitro egg hatching (Fasciola hepatica eggs): did not affect in vitro egg hatching

CSc1nc2cc(Cl)c(Oc3cccc(Cl)c3Cl)cc2[nH]1 [TCBZ, triclabendazole, reference compound]
viability at 72 h, 25 µM ([7]; 25 µM): ~82% | viability at 72 h, 50 µM ([7]; 50 µM): ~1.5% | Effect on in vitro egg hatching (Fasciola hepatica eggs): did not affect in vitro egg hatching | CC50 at 72 h [8]: > 50 µM | killing at 5 µM ([3]; Fasciola hepatica, 5 µM, mean ± SEM, read-out: % Ovicidal activity susceptible isolate): ≤ 2%

From publication PMC10993450, “New benzimidazole derivative compounds with in vitro fasciolicidal properties” (Parasites & Vectors, 2024)
